Data from patent publication US20050020544A1, “Bicyclic CB2 cannabinoid receptor ligands” (priority 2002, published 2005).

What was measured:
Adult female BALB/c mice = format: in vivo, mouse; settings: i.p. twice
Experimental: Adult female BALB/c mice (20 g average body weight, Harlan, Israel) were sensitized on day 0 and day 1 by application of 30 μl of 0.15% Dinitrofluorobenzene (DNFB) diluted in acetone on the shaved skin of the abdomen. On day 6 the animals were challenged by application of 10 μl of DNFB in acetone on one ear. The contralateral ear was not challenged but received the application of 10 μl acetone. Test compounds were administered at increasing doses from 0 to 15 mg/kg i.p. twice, the first injection was immediately after DNFB challenge (on day 6) and the second injection was 16 hours post challenge (on day 7). Each treatment group comprised at least 7 animals. Dexamethasone (DXM) was used as positive control. Ear thickness was determined (in 0.01 mm units) 24 hours after challenge (and 6 hours after second treatment on day 7) using a dial thickness gauge (Mitutoyo, Japan).
Results are analyzed as ear thickness of DNFB treated over DNFB untreated contralateral ear. The impact of the test compound was further assessed by comparing its mean impact on the animals of the treatment group to the response generated by the appropriate vehicle only.

Male ICR mice = experiment: Visceral pain induced by i.p. acetic acid; format: in vivo, mouse
Experimental: Male ICR mice (25 g average body weight, Harlan, Israel) were pretreated by i.v. injection at volume dose of 5 ml/kg of vehicle, control and test compounds at various doses. Each treatment group was composed of at least 4 animals. Fifteen minutes later, the mice were injected i.p. with 10 ml/kg of 0.6% acetic acid and the number of withers is counted over a period of 5 minutes, starting 5 minutes after the acetic acid administration. The results are expressed as mean number of withers±SD.

Sprague Dawley male rats = experiment: Tail flick model, i.v.; format: in vivo, rat; settings: for % animals with latency time twice superior to vehicle: ninety minutes
Experimental: Each treatment group contained at least 6 animals. […] Its vehicle, saline, was also included as control.
Two parameters were used to analyze the results, the latency time and the % of animals showing analgesia. […] The results in both cases are expressed as mean±SE.
Similar studies were performed in Sprague Dawley male rats where the drug was injected i.v. instead of i.p. in the mice model. […] These observations are consistent with the route of administration. In the i.p. study the first time point post-injection was 30 minutes, while it was 10 minutes following i.v. injection thus the onset of action was not thoroughly determined in these experiments. […] At the last time point tested (330 minutes following injection), almost 70% of the animals treated with 4 mg/kg of compound A retained increase resistance to pain.

[1] = tested on: IL-1β secretion from activated RAW 264.7 macrophages; experiment: Inhibition of IL-1β in LPS activated macrophages (ELISA); format: cell-based; settings: Mus musculus, RAW264.7, 24 h, read-out: inhibition of IL-1β secretion
Experimental: The technique used to quantify the amount of a given protein in a liquid sample, either tissue culture supernatant or body fluid, is based on Enzyme Linked ImmunoSorbent Assay (ELISA) methodology. Either commercially available or established in house, the assay is based on the capture of the protein of interest by specific antibodies bound to the bottom of an ELISA plate well. […] Again the unbound material is washed away, the samples are then incubated with the appropriate substrate yielding a calorimetric reaction. The reaction is stopped and reading is performed in a spectrophotometer at the appropriate wavelength. Samples are tested at least in duplicate and the appropriate standard curve, consisting of serial dilutions of the recombinant target protein, is incorporated on each plate. Concentration of the protein in the sample is calculated from the standard curve.
RAW 264.7 macrophages, a mouse cell line (ATCC # TIB-71), were grown in Dulbecco's modified Eagle's medium (DMEM) with 4 mM L-glutamine adjusted to contain 1.5 g/L sodium bicarbonate, 4.5 g/L glucose, and 10% heat inactivated fetal bovine serum. Cells were grown in tissue culture flasks and seeded at appropriate density into 24 wells tissue culture plates. 0.5×10^6 Raw cells in one milliliter were stimulated with 2 μg/ml Lipopolysaccharide E. coli 055:B5 (DIFCO Laboratories). The mouse macrophages were pre-treated for one hour with controls or 10 μM of bicyclic CB2 ligands and later on activated with LPS. Dexamethasone was used as a positive control at 50 nM. Supernatant was collected 4 hours (for PGE2) and 24 hours (for IL-1β and TNF-α) after activation, and the levels of the inflammatory agent under study were determined by ELISA, as previously described. Inhibition was calculated versus vehicle treated cells.

CCCCCCC(C)(C)c1cc(OC)c(C2C=C(CO)C3CC2C3(C)C)c(OC)c1 (single isomer, unassigned; (+)) [HU-308, (+) {4-[4-(1,1-dimethylheptyl)-2,6-dimethoxy-phenyl]-6,6-dimethyl-bicyclo[3.1.1]hept-2-en-2-yl}-methanol, reference compound]
calculated IC50 reduction in ear thickness (Adult female BALB/c mice): 4.8 mg/kg
maximal inhibition (reduction in ear thickness) (Adult female BALB/c mice; doses 0 to 15 mg/kg, 24 hours after challenge): ~60%

CCCCCCC(C)(C)c1cc(O)c(C2CC(=O)C3CC2C3(C)C)c(O)c1 (single isomer, unassigned; (-)) [Compound A, (−)-4-[4-(1,1-Dimethyl-heptyl)2,6-dihydroxy-phenyl]-6,6-dimethyl-bicyclo[3.1.1)heptan-2-one]
inhibition of number of withers as compared to vehicle (Male ICR mice; 0.5 mg/kg i.v.): 64%
number of withers (Male ICR mice; 0.5 mg/kg i.v., mean±SD): 7.9±4.8
inhibition of number of withers as compared to vehicle (Male ICR mice; 1 mg/kg i.v.): 95%
number of withers (Male ICR mice; 1 mg/kg i.v., mean±SD): 1.2±0.6
inhibition of number of withers as compared to vehicle (Male ICR mice; 2 mg/kg i.v.): 100%
number of withers (Male ICR mice; 2 mg/kg i.v.): no withers at all
% animals with latency time twice superior to vehicle (Sprague Dawley male rats; 3 mg/kg i.v.): 100%
% animals with increased resistance to pain (Sprague Dawley male rats; 4 mg/kg i.v., 330 minutes): ~70%
% animals with latency time twice superior to vehicle (Sprague Dawley male rats; 4 mg/kg i.v.): 100%
inhibition at 10 µM [1]: 76%
